{
  "source": "patent US4450155A",
  "about": "“Analgesic dipeptide amides and method of use and compositions thereof” (Sterling Drug Inc., priority 1982, dated 1984)",
  "key": {"[1]": {"tested_on": "guinea pig ileum longitudinal muscle with adhering myenteric plexus", "assay": "Guinea pig ileum test (electrically stimulated longitudinal muscle, inhibition of twitch height)", "type": "cell-based", "conditions": "ratio of IC50 of reference compound Met^5-enkephalin to IC50 of test compound in the same preparation, averaged (N=4); reference given as 100", "description": "Adult male guinea pigs (Charles River, Hartley strain) weighing 300-500 g. are decapitated, and the terminal ileum is exposed by reflecting the overlying cecum, severed at the ileocecal juncture, and removed while cutting the mesenteric attachments to avoid excessive traction on the tissue. The ileum (about 30 cm. in length) is transferred to a beaker containing warm modified Krebs-Henseleit solution (118 mM sodium chloride, 4.75 mM potassium chloride, 2.54 mM calcium chloride, 1.19 mM potassium dihydrogen phosphate, 1.2 mM magnesium sulfate, 25 mM sodium bicarbonate, 11 mM glucose, 20 μM choline chloride and 0.125 μM pyrilamine maleate). The terminal (aboral) portion (about 10 cm. in length) is discarded, and segments (3-4 cm. in length) are cut from the remainder and gently slid onto a glass rod (5-6 mm. in diameter) and arranged so that the mesenteric attachment is in a straight line. A cotton swab moistened in the solution is then carefully used to separate the longitudinal muscle from the underlying circular muscle. The longitudinal muscle and adhering myenteric plexus is then gently removed from the remaining tissue with forceps.\nStrips of this prepared longitudinal muscle are mounted in a double-jacketed organ bath (5 ml.) under tension (1.0 g.), connected to isometric transducers (Grass FT .03), bathed in the modified Krebs-Henseleit solution described above, aerated with oxygen-carbon dioxide (95:5) and maintained at 37° C.\nStimulators (Grass S-44) are set to deliver repetitive monophasic square wave field stimulation (supramaximal voltage, 0.10 Hz., 0.25 msec. duration) through platinum ring electrodes at the top and bottom of the bath. Regular contractions of the muscle, which result from electrically-induced liberation of acetylcholine from postganglionic parasympathetic nerves, are recorded on a polygraph (Grass model 5). Following tissue equilibration (45-60 min.) and repeated washing (every 10 min.) an aqueous solution of a reference or test compound is added to the bath in a microliter volume (1.25-250 μl) and reductions in muscle twitch height are recorded. More compound can be added […] first washing the preparation.\nFrom the results a half-maximal inhibitory concentration (IC50) value for the compound is computed by regression analysis of a linear plot of logarithm of concentration against percent of inhibition of twitch height (probits). The ratio of the IC50 value of a reference compound to that of a test compound tested in the same preparation is the molar potency ratio. Usually four preparations are tested simultaneously by the same person (N=4), and the resulting four molar potency ratios are averaged. […]"}, "rat": {"tested_on": "rat", "conditions": "relative to morphine, cited from earlier work"}, "opiate receptor": {"tested_on": "opiate receptor", "conditions": "rat brain membranes, relative to morphine; cited from earlier work"}, "guinea pig ileum": {"tested_on": "guinea pig ileum", "conditions": "guinea pig ileum test; cited from earlier work"}, "mouse vas deferens": {"tested_on": "mouse vas deferens", "conditions": "mouse vas deferens test; cited from earlier work"}},
  "note": "Where two headings read alike, the source gives them in different places. Where a SMILES comes first, the peptide text is derived from it. The star is where a group is joined. NHPhenethyl = c1ccc(CCN*)cc1",
  "data": [
    {"molecule": "N[C@@H](Cc1ccc(O)cc1)C(=O)N1CCC[C@H]1C(=O)NCCc1ccccc1", "note": "[Example 1, L-tyrosyl-N-(2-phenylethyl)-L-prolinamide] (H-Tyr-Pro-NHPhenethyl)", "values": [
      {"measurement": "Average Molar Potency Ratio", "setting": "[1]", "result": 117}
    ]},
    {"molecule": "N[C@@H](Cc1ccc(O)cc1)C(=O)N1CCC[C@H]1C(=O)NCCCc1ccccc1", "note": "[Example 2, L-tyrosyl-N-(3-phenylpropyl)-L-prolinamide]", "values": [
      {"measurement": "Average Molar Potency Ratio", "setting": "[1]", "result": 6}
    ]},
    {"molecule": "CN(CCCc1ccccc1)C(=O)[C@@H]1CCCN1C(=O)[C@@H](N)Cc1ccc(O)cc1", "note": "[Example 3, L-tyrosyl-N-methyl-N-(3-phenylpropyl)-L-prolinamide]", "values": [
      {"measurement": "Average Molar Potency Ratio", "setting": "[1]", "result": 9}
    ]},
    {"molecule": "C[C@@H](NC(=O)[C@@H](N)Cc1ccc(O)cc1)C(N)=O", "note": "[H-Tyr-D-Ala-NH2]", "values": [
      {"measurement": "times less potent than morphine, tail flick test", "setting": "rat; intravenously", "result": "greater than 10 times"},
      {"measurement": "times less potent than morphine, tail flick test", "setting": "rat; intraventricularly", "result": 200, "unit": "times"},
      {"measurement": "times less affinity than morphine, opiate receptor binding", "setting": "opiate receptor", "result": 830, "unit": "times"}
    ]},
    {"molecule": "C[C@@H](NC(=O)[C@@H](N)Cc1ccc(O)cc1)C(=O)NCCNCCc1ccccc1", "note": "[HTyrD-AlaNH(CH2)2 NH(CH2)2 Phenyl]", "values": [
      {"measurement": "potency relative to Met-enkephalin", "setting": "guinea pig ileum", "result": "< 1", "unit": "%"},
      {"measurement": "potency relative to Met-enkephalin", "setting": "mouse vas deferens", "result": "< 1", "unit": "%"}
    ]},
    {"molecule": "Met^5 -enkephalin [Met^5 --enkephalin]", "values": [
      {"measurement": "Average Molar Potency Ratio", "setting": "[1]", "result": 100}
    ]}
  ]
}
